Here are results for 2 compounds from patent publication US8020343B2, “Enhanced shelf life and on seed stabilization of liquid bacterium inoculants” (Becker Underwood Inc., priority 2004, dated 2011).

One assay has as its system B. japonicum strain 532C. Nature of the assay: Sorbitol versus trehalose: on-seed rhizobial viability on soybean seed. Type of assay: cell-based. Particulars: trehalose 30% w/v vs sorbitol 20% w/v; seeds at 18-20° C., time zero and 7 days, FIG. 13. On the procedure: An experiment was run to determine whether sorbitol or trehalose is better suited for application to soybean seeds with B japonicum. The following steps were performed: • 1. B. japonicum strain 532C was grown for 5 days in 1.5×Bj2 (a soybean fermentation medium) at 30° C. and 165 rpm. • 2. Either sorbitol (20% w/v) or trehalose (30% w/v) was added to the culture, and the cultures were maintained for 5 days at 30° C., 165 rpm. • 3. 2.7 ml/kg of either sorbitol or trehalose amended culture was applied to soybean seed. Seeds were evenly coated. • 4. Seeds were stored at 18-20° C. • 5. On-seed rhizobial viability was monitored at time zero and after 7 days

The next assay deals with Rhizobium leguminosarum. Nature of the assay: Sugar/sugar alcohol study: bacteria counts on pea seeds. The assay is classed as cell-based. To be noted: 15° C., sorbitol vs sucrose vs trehalose. On the procedure:
Partially desiccated inoculant products were prepared by first growing Rhizobium leguminosarum in a Rhizobium leguminosarum bv. viceae culture medium. Two different culture mediums were used, 1×R1 and 1.5×R1, which are pea and lentil fermentation medium. The 1.5×R1 has 50% more media components than 1×R1. After 3 days culture growth, a sugar or a sugar alcohol was aseptically added to the culture. The amount of sugar or sugar alcohol added to the culture is shown in final concentration (weight/volume) in Table 9 below. The culture was then allowed a 2 day conditioning phase during which the culture continued to grow thereby creating the partially desiccated inoculant product. The partially desiccated inoculant product was then applied to pea seeds at a rate of 3.1 L inoculant product/1136 kg seed. The seeds were then mixed in a bag by shaking to evenly distribute the inoculant product on the seeds. The seeds were then stored at 15° C.
The bacteria counts were performed in a similar manner as the previous examples. That is, 50 seeds were put in 100 ml of phosphate buffer in a dilution bottle. The bottle was shaken for 5 minutes. 10 fold serial dilutions were made and 0.1 ml of proper dilution was spread onto nutrient medium plates. The viable bacteria cells on seed were calculated based on the colony numbers on the plates.

Structures are written as SMILES.

For `OC[C@H]1O[C@H](O[C@H]2O[C@H](CO)[C@@H](O)[C@H](O)[C@H]2O)[C@H](O)[C@@H](O)[C@@H]1O` [trehalose], in the assay with B. japonicum strain 532C, the “suitability for application to B japonicum on soybean seeds (on-seed rhizobial viability)” value was “better suited than sorbitol”.
With `OC[C@@H](O)[C@@H](O)[C@H](O)[C@@H](O)CO` [sorbitol], the “extension of on-seed shelf life of Rhizobium leguminosarum, ranking of sugars/sugar alcohols tested” value with Rhizobium leguminosarum was “top performing”.
